Results published in US9771366B2, “Substituted tetrahydropyrido[3′,2′:4,5]pyrrolo[1,2-a]pyrazine-2-carboxamides as RSK inhibitors” (Phoenix Molecular Designs, priority 2016, dated 2017).
Entries after “also recorded” stand apart in the source; their conditions may differ. Structures can show the parent of a compound that is named as a salt. Where two headings read alike, the source gives them in different places.

Columns and labels:
[1] = Solubility assessment at 20 mg/ml; format: physicochemical; details: for 20 mg/ml Solubility: dissolved in DMSO; for pH: 20 mg/ml solution
Experimental: Solubility is an important property for therapeutic drug candidates. Poor solubility can lead to low bioavailability resulting in suboptimal drug delivery. It can also prevent the evaluation of test agents in animals because the concentration(s) needed to achieve the desired effect cannot be achieved to poor solubility. For solubility assessments, small molecules targeting RSK were compared. For these assessments, 100 mM solutions of the compounds dissolved in DMSO were diluted in DMEM growth media (Life Technologies) supplemented with fetal bovine serum (FBS, Life Technologies) and 100 units/ml penicillin and 100 units/ml streptomycin (Life Technologies) to make 20 mg/ml solutions. Once diluted, the solutions were vortexed and examined for the formation of precipitates. […] For Compound 26, a 100 mM solution of the compound dissolved in DMSO was diluted in phosphate buffered saline (Life Technologies) to make a 20 mg/ml solution. The stock of […] was chosen because this is the upper end of what would be required to dose mice for a range of studies including MTD, PK, PD and efficacy. The pH of this solution was determined to be 2, as previously described. […] At high concentrations some RSK inhibitors were highly soluble while others were not. Compound 0 is (R)—N-(1-benzyl-1H-pyrazol-4-yl)-9-methyl-6-oxo-6,7,8,9-tetrahydropyrido[3′,2′:4,5]pyrrolo[1,2-a]pyrazine-2-carboxamide. Compound 0 was not soluble, whereas Compounds 18, 20, 21, 25 and 26 were soluble under the same conditions (Table 5).

RSK2 = RSK2 (Homo sapiens (Human), UniProt P51812); test: Radioisotope kinase assay (SignalChem), RSK2; format: biochemical
Experimental: The assay conditions for the RSK2 kinase target were optimized to yield acceptable enzymatic activity. In addition, the assays were optimized to give high signal-to-noise ratio.
Radioisotope assays (SignalChem) were performed for the evaluation of the kinase target profiling and all assays were performed in a designated radioactive working area. The kinase targets were RSK1, RSK2, RSK3, RSK4 and MK2.
The assay was initiated by the addition of ^33P-ATP and the reaction mixture incubated at 30° C. for 15 minutes. After the incubation period, the assay was terminated by spotting 10 μL of the reaction mixture onto Multiscreen phosphocellulose P81 plate. The Multiscreen phosphocellulose P81 plate was washed 3 times for approximately 15 minutes each in a 1% phosphoric acid solution. The radioactivity on the P81 plate was counted in the presence of scintillation fluid in a Trilux scintillation counter.
Blank controls were set up for each target kinase which included all the assay components except the addition of the appropriate substrate (which was replaced with equal volume of assay dilution buffer). The corrected activity for each target kinase was determined by removing the blank control value.

CD34+ cells = test: Colony forming unit hematopoietic stem cell assay; format: cell-based, human; details: ratio of IC50 values against CD34+ cells and MDA-MB-231 cells
Experimental: The hematopoietic colony forming cell assay was conducted based on a protocol outlined by StemCell Technologies. […] Following the addition of CD34^+ cells isolated from human cord blood or peripheral blood (StemCell Technologies) at a final concentration of 5×10^2 cells per dish, the tubes were vortexed and allowed to stand for 5 minutes at room temperature. Next, the MethoCult mixtures were dispensed into 35 mm dishes (Corning Incorporated) through blunt end needles (StemCell Technologies) and 5 ml syringes (BD Biosciences) at a volume of 1.1 ml per dish. The medium was evenly distributed across the surface of each dish by gentle tilting and rotation. The dishes were then placed in a 100 mm culture dish (Grenier Bio-One) containing additional 35 mm dishes with sterile water to maintain humidity. The culture dish was then placed at 37° C. in a humidified incubator containing 5% CO2 for 13 days. The number of myeloid and erythroid derived colonies in both the treated and control dishes were counted and compared.

HLA-DRA mRNA = test: Immuno-oncology: HLA-DRA mRNA expression; format: cell-based, Human; details: MDA-MB-231 and JIMT-1 cells; Compound 16 2 or 4 uM, Compound 18 1, 2, or 4 uM
Source text: (§1) A key feature of cancer is low immunogenicity. This can occur by several mechanisms that allow the cells to escape immune recognition. […] HLA-DRA is a member of MHC-II genes and CIITA is the master regulator of MHC II transcription. Thus it was surprising that CIITA, which would be expected to regulate MHC II gene expression, was not altered by RSK inhibition. […] HLA-DRA is important for immune recognition while PD-L1 is involved in immune checkpoints.

CIITA mRNA = test: Immuno-oncology: CIITA mRNA expression; format: cell-based, Human; details: MDA-MB-231 and JIMT-1 cells; Compound 16 2 or 4 uM, Compound 18 1, 2, or 4 uM
Source text: as §1

[2] = system: CD274, the gene that encodes PD-L1; test: Immuno-oncology: CD274 expression in MDA-MB-231 cells; format: cell-based, Human; details: Compound 16 2 or 4 uM, Compound 18 1, 2 or 4 uM
Source text: as §1

[3] = system: phosphorylated Y-box binding protein-1 (YB-1) at serine 102 (P—YB-1S102); test: Immunoblotting of phosphorylated YB-1 in MDA-MB-231 cells; details: MDA-MB-231, 0.01-1 uM, 96 hrs
Experimental: Following desired experimental conditions, breast cancer cell lines grown and treated in 6 well plates or 100 mm culture dishes (Grenier Bio-One) were placed on ice and the supernatant from each well was removed and the cells were washed in cold PBS. Following removal of PBS, cells were exposed to radioimmunoprecipitation assay (RIPA) buffer (50 mM Tris-HCl (pH 8), 150 mM NaCl, 1% NP-40, 0.5% sodium deoxycholate, 0.1% SDS; Fisher Scientific) supplemented with 1% phosphatase inhibitor (Fisher Scientific) and 1% protease inhibitor (Fisher Scientific) for 10 minutes. Samples were transferred to eppendorf tubes, vortexed and then centrifuged at 14 000 rpm for 10 minutes. Supernatants were collected as whole cell lysates. For mouse tumour tissues, each sample was place in a 35 mm culture dish with complete RIPA lysis buffer. The samples were diced in the buffer on ice with a sterile scalpel (VWR) and the buffer and tissue were transferred to an eppendorf tube. The samples were left on ice for 10 minutes with periodic vortexing every 2 to 3 minutes. The samples were then transferred to a Qiashredder (Qiagen) and centrifuged at 14 000 rpm for 2 minutes. The flow through was transferred to a new eppendorf tube and the samples were centrifuged again at 14 000 rpm for 5 minutes. Supernatants were collected as whole cell lysates.
For the majority of experiments in this study, 30 μg of protein per well was loaded. Samples were then resolved on SDS-PAGE (polyacrylamide gel electrophoresis) using various percentages of acrylamide gels (8%-12%), depending on the proteins of interest. […] For certain immunoblots, bands of proteins of interest were scanned and band intensity ratios were determined by densitometric analysis (ImageJ). […] To assess whether cells are actively undergoing cell death, the activity of poly ADP ribose polymerase (PARP) (1:1000 CST) was also measured using the immunoblotting method.

[4] = Plasma and tumor levels by LC/MS in MDA-MB-231 xenograft mice; format: in vivo; details: nu/nu, mouse, oral, 100 mg/kg; for concentration at 30 min: 30 minutes after last dose

RSK2, sequence (P51812 whole entry): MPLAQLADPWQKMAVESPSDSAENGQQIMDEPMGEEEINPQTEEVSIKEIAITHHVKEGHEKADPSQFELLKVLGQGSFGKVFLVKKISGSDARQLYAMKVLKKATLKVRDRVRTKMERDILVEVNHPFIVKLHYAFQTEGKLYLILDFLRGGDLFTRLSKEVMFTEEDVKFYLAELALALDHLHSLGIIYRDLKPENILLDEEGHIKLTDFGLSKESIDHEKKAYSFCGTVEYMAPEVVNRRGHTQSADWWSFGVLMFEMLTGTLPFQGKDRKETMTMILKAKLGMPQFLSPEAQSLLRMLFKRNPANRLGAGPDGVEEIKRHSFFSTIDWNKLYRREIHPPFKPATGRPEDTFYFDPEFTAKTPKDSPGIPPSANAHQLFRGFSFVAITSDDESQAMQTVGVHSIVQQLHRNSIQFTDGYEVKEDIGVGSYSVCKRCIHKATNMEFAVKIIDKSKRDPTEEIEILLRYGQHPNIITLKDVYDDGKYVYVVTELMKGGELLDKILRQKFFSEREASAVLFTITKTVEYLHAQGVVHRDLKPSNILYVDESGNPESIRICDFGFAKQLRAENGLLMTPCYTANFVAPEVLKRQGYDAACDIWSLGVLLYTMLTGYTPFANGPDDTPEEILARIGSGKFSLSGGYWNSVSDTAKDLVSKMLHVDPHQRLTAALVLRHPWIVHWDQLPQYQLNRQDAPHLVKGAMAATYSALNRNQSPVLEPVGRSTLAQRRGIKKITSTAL

C[C@@H]1CNC(=O)c2c(Cl)c3ccc(C(=O)Nc4cnn(Cc5ccccc5)c4)nc3n21 [Compound 24, (R)—N-(1-benzyl-1H-pyrazol-4-yl)-5-chloro-9-methyl-6-oxo-6,7,8,9-tetrahydropyrido[3′,2′:4,5]pyrrolo[1,2-a]pyrazine-2-carboxamide]
20 mg/ml Solubility ([1]; diluted in DMEM): Precipitate

C[C@@H]1CNC(=O)c2cc3ccc(NC(=O)c4cnn(Cc5ccccc5)c4)cc3n21 [Compound 11, (R)-1-benzyl-N-(4-methyl-1-oxo-1,2,3,4-tetrahydropyrazino[1,2-a]indol-7-yl)-1H-pyrazole-4-carboxamide]
IC50 (RSK2): 1380 nM

C[C@@H]1CNC(=O)c2cc3ccc(C(=O)Nc4cnn(Cc5ccccc5)c4)nc3n21 [Compound 0, (R)—N-(1-benzyl-1H-pyrazol-4-yl)-9-methyl-6-oxo-6,7,8,9-tetrahydropyrido[3′,2′:4,5]pyrrolo[1,2-a]pyrazine-2-carboxamide, reference compound]
20 mg/ml Solubility ([1]; diluted in DMEM): not soluble; also recorded: Precipitate
solubility for systemic delivery / pharmacodynamics evaluation ([1]; mice): poor or nonexistent solubility
Therapeutic Window (CD34+ cells): 50X

C[C@@H]1CNC(=O)c2cc3ccc(C(=O)Nc4cnn(CC5CCN(C)CC5)c4)nc3n21 [Compound 20, (R)-9-methyl-N-(1-((1-methylpiperidin-4-yl)methyl)-1H-pyrazol-4-yl)-6-oxo-6,7,8,9-tetrahydropyrido[3′,2′:4,5]pyrrolo[1,2-a]pyrazine-2-carboxamide]
IC50 (RSK2): 124 nM
pH ([1]; DMSO diluted in DMEM): 8
20 mg/ml Solubility ([1]; diluted in DMEM): Soluble

C[C@@H]1CNC(=O)c2cc3ccc(C(=O)Nc4cnn(Cc5ccc(C(F)(F)F)cc5)c4)nc3n21 [Compound 22, (R)-9-methyl-6-oxo-N-(1-(4-(trifluoromethyl)benzyl)-1H-pyrazol-4-yl)-6,7,8,9-tetrahydropyrido[3′,2′:4,5]pyrrolo[1,2-a]pyrazine-2-carboxamide]
20 mg/ml Solubility ([1]; diluted in DMEM): Precipitate

C[C@@H]1CNC(=O)c2cc3ccc(C(=O)Nc4cnn(Cc5ccc(CN)cc5)c4)nc3n21 [Compound 26, (R)—N-(1-(4-(aminomethyl)benzyl)-1H-pyrazol-4-yl)-9-methyl-6-oxo-6,7,8,9-tetrahydropyrido[3′,2′:4,5]pyrrolo[1,2-a]pyrazine-2-carboxamide hydrochloride salt]
pH at which the compound remained in solution ([1]; 20 mg/ml in PBS after 4M NaOH was added): 9
pH ([1]; DMSO diluted in PBS, hydrochloride salt): 2-9
20 mg/ml Solubility ([1]; diluted in PBS, hydrochloride salt): Soluble

C[C@@H]1CNC(=O)c2cc3ccc(C(=O)Nc4cnn(Cc5cccc(N)c5)c4)nc3n21 [Compound 16, (R)—N-(1-(3-aminobenzyl)-1H-pyrazol-4-yl)-9-methyl-6-oxo-6,7,8,9-tetrahydropyrido[3′,2′:4,5]pyrrolo[1,2-a]pyrazine-2-carboxamide]
IC50 (RSK2): 23 nM
levels of HLA-DRA mRNA (HLA-DRA mRNA): elevated
mRNA expression of CIITA (CIITA mRNA): little effect
levels of CD274 [2]: reduced
Therapeutic Window (CD34+ cells): >100X
loss of P—YB-1 [3]: dose dependent loss

C[C@@H]1CNC(=O)c2cc3ccc(C(=O)Nc4cnn(Cc5ccccc5N)c4)nc3n21 [Compound 17, (R)—N-(1-(2-aminobenzyl)-1H-pyrazol-4-yl)-9-methyl-6-oxo-6,7,8,9-tetrahydropyrido[3′,2′:4,5]pyrrolo[1,2-a]pyrazine-2-carboxamide]
IC50 (RSK2): 14 nM

CC(=O)O[C@H]1C(=O)[C@@]2(C)[C@H]([C@H](OC(=O)c3ccccc3)[C@]3(O)C[C@H](OC(=O)[C@H](O)[C@@H](NC(=O)c4ccccc4)c4ccccc4)C(C)=C1C3(C)C)[C@]1(OC(C)=O)CO[C@@H]1C[C@@H]2O [Taxol, paclitaxel, reference compound]
Therapeutic Window (CD34+ cells): 6.9X

C[C@@H]1CNC(=O)c2cc3ccc(C(=O)Nc4cnn(Cc5ccc(N)cc5)c4)nc3n21 [Compound 25, (R)—N-(1-(4-aminobenzyl)-1H-pyrazol-4-yl)-9-methyl-6-oxo-6,7,8,9-tetrahydropyrido[3′,2′:4,5]pyrrolo[1,2-a]pyrazine-2-carboxamide hydrochloride salt]
IC50 (RSK2): 18 nM
pH ([1]; DMSO diluted in DMEM, hydrochloride salt): 2
20 mg/ml Solubility ([1]; diluted in DMEM, hydrochloride salt): Soluble
concentration at 30 min ([4]; plasma, 100 mg/kg BID PO three days, read-out: plasma level, average): 35.1 µM
concentration at 30 min ([4]; tumor, 100 mg/kg BID PO 21 days, read-out: average concentration in the tumors): 7.7 µM
concentration at 30 min ([4]; tumor, 100 mg/kg BID PO three days, read-out: Tumor level, average): 7.1 µM
Kp at 30 min ([4]; tumor/plasma, three days of treatment, read-out: tumor uptake (ratio between tumor and plasma)): 0.2
Therapeutic Window (CD34+ cells; hydrochloride salt): >100X

C[C@@H]1CNC(=O)c2cc3ccc(C(=O)Nc4ccccc4C(N)=O)nc3n21 [Compound 21, (R)—N-(2-carbamoylphenyl)-9-methyl-6-oxo-6,7,8,9-tetrahydropyrido[3′,2′:4,5]pyrrolo[1,2-a]pyrazine-2-carboxamide]
pH ([1]; DMSO diluted in DMEM): 9
20 mg/ml Solubility ([1]; diluted in DMEM): Soluble
